The values that follow come from patent publication US7858796B2, “Chemical compounds” (Glaxo Group Limited, priority 2004, dated 2010).

The first assay concerns the target T1, Recombinant human IKKβ (residues 1-737) (Homo sapiens, UniProt O14920).
T1 construct: Recombinant human IKKβ (residues 1-737); GST (C); made in house
T1 sequence (O14920 1-737): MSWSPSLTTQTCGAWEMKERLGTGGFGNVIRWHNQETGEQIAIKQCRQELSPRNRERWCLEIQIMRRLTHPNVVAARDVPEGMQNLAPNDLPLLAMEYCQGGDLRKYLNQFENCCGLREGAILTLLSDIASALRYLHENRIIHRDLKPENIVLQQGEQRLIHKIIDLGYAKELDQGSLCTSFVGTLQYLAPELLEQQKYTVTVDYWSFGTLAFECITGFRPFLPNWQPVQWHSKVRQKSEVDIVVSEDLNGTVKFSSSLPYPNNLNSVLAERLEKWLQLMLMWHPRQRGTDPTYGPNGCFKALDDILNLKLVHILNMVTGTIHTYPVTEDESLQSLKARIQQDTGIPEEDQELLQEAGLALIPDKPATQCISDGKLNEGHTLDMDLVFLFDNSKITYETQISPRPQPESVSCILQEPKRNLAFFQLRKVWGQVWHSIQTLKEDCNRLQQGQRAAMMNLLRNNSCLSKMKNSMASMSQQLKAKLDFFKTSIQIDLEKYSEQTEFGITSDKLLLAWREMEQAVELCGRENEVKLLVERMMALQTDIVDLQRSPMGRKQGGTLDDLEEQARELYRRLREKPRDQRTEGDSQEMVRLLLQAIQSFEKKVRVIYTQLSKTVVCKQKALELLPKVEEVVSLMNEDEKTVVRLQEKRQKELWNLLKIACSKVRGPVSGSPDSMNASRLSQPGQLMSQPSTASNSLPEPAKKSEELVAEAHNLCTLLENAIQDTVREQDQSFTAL
Briefly: IKK2 Assay (TR-FRET). The format is biochemical. The conditions noted are these: IKK2 5 nM, GST-IκBα 25 nM, ATP 1 μM, 30 minutes at room temperature, read-out: pIC50 against IKK2 (converted). The protocol: Recombinant human IKKβ (residues 1-737) was expressed in baculovirus as a C-terminal GST-tagged fusion protein, and its activity was assessed using a time-resolved fluorescence resonance energy transfer (TR-FRET) assay. Briefly, IKK2 (5 nM final) diluted in assay buffer (50 mM HEPES, 10 mM MgCl2, 1 mM CHAPS pH 7.4 with 1 mM DTT and 0.01% w/v BSA) was added to wells containing various concentrations of compound or DMSO vehicle (3% final). The reaction was initiated by the addition of GST-IκBα substrate (25 nM final)/ATP (1 μM final), in a total volume of 30 μl. The reaction was incubated for 30 minutes at room temperature, then terminated by the addition of 15 μl of 50 mM EDTA. Detection reagent (15 μl) in buffer (100 mM HEPES pH 7.4, 150 mM NaCl and 0.1% w/v BSA) containing antiphosphoserine-IκBα-32/36 monoclonal antibody 12C2 (Cell Signalling Technology, Beverly Mass., USA) labelled with W-1024 europium chelate (Wallac OY, Turku, Finland), and an APC-labelled anti-GST antibody (Prozyme, San Leandro, Calif., USA) was added and the reaction was further incubated for 60 minutes at room temperature. The degree of phosphorylation of GST-IκBα was measured using a Packard Discovery plate reader (Perkin-Elmer Life Sciences, Pangbourne, UK) as a ratio of specific 665 nm energy transfer signal to reference europium 620 nm signal.
(In general: Time-resolved FRET reads energy transfer from a long-lived donor to a nearby acceptor.)
For the compound `NC(=O)c1cc(-c2ccccc2)cc2c(C3CCN(S(=O)(=O)CCNCC4CCCCC4)CC3)c[nH]c12` [Example 38], the IC50 is no more than 10 µM.

Turning to `NC(=O)c1cc(-c2ccccc2)cc2c(C3CCN(S(=O)(=O)CCOCC4CCOC4)CC3)c[nH]c12` (centres unmarked) [Example 200], the IC50 is no more than 10 µM.

As for `COCCCS(=O)(=O)N1CCC(c2c[nH]c3c(C(N)=O)cc(-c4cccc(CNCCN5CCCCC5)c4)cc23)CC1` [Example 249], the IC50 is greater than 25.1 µM.

A further assay relates to human monocyte stimulated cytokine production (TNF-α). Briefly: Monocyte Assay (LPS-stimulated TNF-α production). The format is cell-based. The conditions noted are these: human CD14+ monocytes, 200 ng/mL LPS, 24 hrs, TNF-α by ELISA. The protocol: Effect of IKK-β inhibition on human monocyte stimulated cytokine production was assessed as follows: Monocytes were isolated from heparinized whole blood by Ficoll gradient, followed by purification of CD14+ cells using MACS magnetic cell separation beads. Isolated monocytes were then adhered to 96-well culture plates at 1×10^6 cells/mL in RPMI 1640 10% FBS (JRH Biosciences, Lenexa Kans.) for 2 h. to further enrich the monocyte population. The media was then removed, cells washed once with RPMI 1640, and 0.125 mL RPMI 1640 10% FBS was added to the wells. Test compounds are added to the wells 30 minutes prior to stimulation with a final vehicle concentration of 0.1% DMSO. Monocytes were activated by the addition of 200 ng/mL endotoxin (LPS; E. coli serotype 026:B6) (Sigma, St. Louis, Mo.) and incubated for 24 hrs at 37 C. Cell-free supernates were analyzed by ELISA for TNF-α using Pharmingen matched pair Abs. Viability of the cells was determined by10% trypan blue exclusion.
For orientation: ELISA stands for enzyme-linked immunosorbent assay.
`NC(=O)c1cc(-c2ccccc2)cc2c(C3CCN(S(=O)(=O)CCOCC4CCOC4)CC3)c[nH]c12` (centres unmarked) [Example 200] registered an IC50 of less than 10 µM.

In the case of `Cn1cnc(S(=O)(=O)N2CCC(c3c[nH]c4c(C(N)=O)cc(-c5ccccc5)cc34)CC2)c1` [Example 267, 3-{1-[(1-methyl-1H-imidazol-4-yl)sulfonyl]-4-piperidinyl}-5-phenyl-1H-indole-7-carboxamide], the IC50 is less than 10 µM.

`NC(=O)c1cc(-c2ccccc2)cc2c(C3CCN(S(=O)(=O)c4cccs4)CC3)c[nH]c12` [Example 268, 5-phenyl-3-[1-(2-thienylsulfonyl)-4-piperidinyl]-1H-indole-7-carboxamide] yielded an IC50 of less than 10 µM.

Compound `NC(=O)c1cc(-c2ccccc2)cc2c(C3CCN(S(=O)(=O)c4ccc(CNCc5ccccc5)s4)CC3)c[nH]c12` [Example 271, 5-phenyl-3-{1-[(5-{[(phenylmethyl)amino]methyl}-2-thienyl)sulfonyl]-4-piperidinyl}-1H-indole-7-carboxamide] registered an IC50 of less than 10 µM.

In the case of `CC(=O)Nc1nc(C)c(S(=O)(=O)N2CCC(c3c[nH]c4c(C(N)=O)cc(-c5ccccc5)cc34)CC2)s1` [Example 272, 3-(1-{[2-(acetylamino)-4-methyl-1,3-thiazol-5-yl]sulfonyl}-4-piperidinyl)-5-phenyl-1H-indole-7-carboxamide], the IC50 was less than 10 µM.

For `Cc1nn(C)c(Cl)c1S(=O)(=O)N1CCC(c2c[nH]c3c(C(N)=O)cc(-c4ccccc4)cc23)CC1` [Example 273, 3-{1-[(5-chloro-1,3-dimethyl-1H-pyrazol-4-yl)sulfonyl]-4-piperidinyl}-5-phenyl-1H-indole-7-carboxamide], the IC50 was less than 10 µM.

`NC(=O)c1cc(-c2ccccc2)cc2c(C3CCN(S(=O)(=O)c4ccc5nonc5c4Cl)CC3)c[nH]c12` [Example 274, 3-{1-[(4-chloro-2,1,3-benzoxadiazol-5-yl)sulfonyl]-4-piperidinyl}-5-phenyl-1H-indole-7-carboxamide]: the IC50 is less than 10 µM.

For the compound `Cc1nc(S(=O)(=O)N2CCC(c3c[nH]c4c(C(N)=O)cc(-c5ccccc5)cc34)CC2)cn1C` [Example 275, 3-{1-[(1,2-dimethyl-1H-imidazol-4-yl)sulfonyl]-4-piperidinyl}-5-phenyl-1H-indole-7-carboxamide], the IC50 is less than 10 µM.

Consider `Cc1nn(C)c(C)c1S(=O)(=O)N1CCC(c2c[nH]c3c(C(N)=O)cc(-c4ccccc4)cc23)CC1` [Example 276, 5-phenyl-3-{1-[(1,3,5-trimethyl-1H-pyrazol-4-yl)sulfonyl]-4-piperidinyl}-1H-indole-7-carboxamide], for which the IC50 is less than 10 µM.

`Cc1noc(C)c1S(=O)(=O)N1CCC(c2c[nH]c3c(C(N)=O)cc(-c4ccccc4)cc23)CC1` [Example 277, 3-{1-[(3,5-dimethyl-4-isoxazolyl)sulfonyl]-4-piperidinyl}-5-phenyl-1H-indole-7-carboxamide] yielded an IC50 of less than 10 µM.

`Cc1nc(C)c(S(=O)(=O)N2CCC(c3c[nH]c4c(C(N)=O)cc(-c5ccccc5)cc34)CC2)s1` [Example 278, 3-{1-[(2,4-dimethyl-1,3-thiazol-5-yl)sulfonyl]-4-piperidinyl}-5-phenyl-1H-indole-7-carboxamide] yielded an IC50 of less than 10 µM.

Regarding `Cc1ncc(S(=O)(=O)N2CCC(c3c[nH]c4c(C(N)=O)cc(-c5ccccc5)cc34)CC2)n1C` [Example 279, 3-{1-[(1,2-dimethyl-1H-imidazol-5-yl)sulfonyl]-4-piperidinyl}-5-phenyl-1H-indole-7-carboxamide], the IC50 is less than 10 µM.

In turn, `Cn1cnc(S(=O)(=O)N2CCC(c3c[nH]c4c(C(N)=O)cc(-c5ccsc5)cc34)CC2)c1` [Example 280, 3-{1-[(1-methyl-1H-imidazol-4-yl)sulfonyl]-4-piperidinyl}-5-(3-thienyl)-1H-indole-7-carboxamide] had an IC50 of less than 10 µM.

`NC(=O)c1cc(-c2ccccc2)cc2c(C3CCN(S(=O)(=O)c4ccsc4)CC3)c[nH]c12` [Example 311, 5-phenyl-3-[1-(3-thienylsulfonyl)piperidin-4-yl]-1H-indole-7-carboxamide]: the IC50 was less than 10 µM.
